Marks after values point to notes of the source that are not given here.
Key:
[1] = target: T1, hD1 receptor (Homo sapiens, UniProt P21728); test: [35S]-GTPγS binding in HEK293-hD1 cell membranes; type: biochemical
T1 construct: expressed in transfected cells
Description: (§1) For [^35S]-GTPγS-binding, cell pellets were resuspended in 10 mM Tris-HCl/1 mM EDTA, pH 7.4, homogenized in a glass-teflon homogenizer and centrifuged for 15 min (40,000 × g, 4°C). Supernatant was discarded, and pellet was washed twice with ice-cold Tris-HCl/EDTA buffer and finally resuspended in 50 mM Tris-HCl, 4 mM MgCl2, 1 mM EDTA, 250 mM sucrose, pH 7.4, and stored at -80°C. The protein content was determined according to the Bradford method [30] with gamma immunoglobulin as standard.

[2] = target: T1, hD1 receptor; test: Radioligand competition binding at hD1 receptors (cell membranes); conditions: for higher affinities for D1-like than for D2-like receptors: binding (table 2)
[3] = target: T2, hD2L receptor (Homo sapiens, UniProt P14416); test: Intracellular [cAMP], CRE-luciferase reporter gene assay, HEK293-hD2L cells; type: cell-based; conditions: read-out: pKi app [cAMP]i hD2L (converted)
T2 construct: expressed in transfected cells

[4] = target: T2, hD2L receptor; test: [35S]-GTPγS binding in HEK293-hD2L cell membranes; type: biochemical; conditions: read-out: pKi app [35S]-GTPγS binding hD2L (converted)
Description: as §1

[5] = target: h5HT2A receptor (Homo sapiens, UniProt P28223); test: Radioligand competition binding at h5HT2A receptors (cell membranes); conditions: read-out: pKi h5HT2A (converted)
[6] = target: T3, hD5 receptor (Homo sapiens, UniProt P21918); test: Radioligand competition binding at hD5 receptors (cell membranes); conditions: read-out: pKi hD5 (converted)
T3 construct: expressed in transfected cells

[7] = target: T2, hD2L receptor; test: Radioligand competition binding at hD2L receptors (cell membranes); conditions: read-out: pKi hD2L (converted)
[8] = target: T2, hD2L receptor; test: Intracellular [Ca2+] fluorescence assay, HEK293-hD2L cells; type: cell-based
[9] = target: T1, hD1 receptor; test: Intracellular [Ca2+] fluorescence assay, HEK293-hD1 cells; type: cell-based
[10] = target: T1, hD1 receptor; test: Intracellular [cAMP], CRE-luciferase reporter gene assay, HEK293-hD1 cells; type: cell-based
[11] = target: T4, hD4.4 receptor (Homo sapiens, UniProt P21917); test: Radioligand competition binding at hD4.4 receptors (cell membranes); conditions: read-out: pKi hD4.4 (converted)
T4 sequence (P21917 1-419): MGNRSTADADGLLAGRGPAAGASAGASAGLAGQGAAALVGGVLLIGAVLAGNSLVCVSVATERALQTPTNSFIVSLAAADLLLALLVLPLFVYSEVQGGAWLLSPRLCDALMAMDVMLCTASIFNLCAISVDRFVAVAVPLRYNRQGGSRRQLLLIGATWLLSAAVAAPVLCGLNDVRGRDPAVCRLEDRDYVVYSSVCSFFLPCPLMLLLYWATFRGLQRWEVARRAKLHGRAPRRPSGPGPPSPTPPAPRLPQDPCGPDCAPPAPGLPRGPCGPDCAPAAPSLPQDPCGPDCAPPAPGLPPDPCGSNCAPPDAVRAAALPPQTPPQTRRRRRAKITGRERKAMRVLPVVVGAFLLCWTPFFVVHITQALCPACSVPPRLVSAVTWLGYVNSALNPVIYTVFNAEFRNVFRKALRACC

[12] = target: T5, hD3 receptor (Homo sapiens, UniProt P35462); test: Radioligand competition binding at hD3 receptors (cell membranes); conditions: read-out: pKi hD3 (converted)
T5 construct: expressed in transfected cells

[13] = target: T2, hD2L receptor; conditions: radioligand binding literature data; cited from earlier work
[14] = target: T1, hD1 receptor; conditions: radioligand binding literature data; cited from earlier work
[15] = Schild and Clark analyses, Ca2+ assay

Chain of h5HT2A receptor (P28223 whole entry): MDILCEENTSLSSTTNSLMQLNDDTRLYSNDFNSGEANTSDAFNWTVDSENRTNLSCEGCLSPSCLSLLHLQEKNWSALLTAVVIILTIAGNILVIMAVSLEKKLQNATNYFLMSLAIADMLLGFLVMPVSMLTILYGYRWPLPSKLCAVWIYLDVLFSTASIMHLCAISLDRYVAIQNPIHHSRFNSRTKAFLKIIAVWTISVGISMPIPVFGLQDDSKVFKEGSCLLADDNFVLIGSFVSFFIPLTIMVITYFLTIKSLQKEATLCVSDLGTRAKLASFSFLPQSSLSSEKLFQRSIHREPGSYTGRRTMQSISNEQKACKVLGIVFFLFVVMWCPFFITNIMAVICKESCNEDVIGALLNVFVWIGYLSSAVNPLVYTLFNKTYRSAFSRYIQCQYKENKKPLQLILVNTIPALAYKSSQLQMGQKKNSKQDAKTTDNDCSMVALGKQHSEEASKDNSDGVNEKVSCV
T2 sequence (P14416 whole entry): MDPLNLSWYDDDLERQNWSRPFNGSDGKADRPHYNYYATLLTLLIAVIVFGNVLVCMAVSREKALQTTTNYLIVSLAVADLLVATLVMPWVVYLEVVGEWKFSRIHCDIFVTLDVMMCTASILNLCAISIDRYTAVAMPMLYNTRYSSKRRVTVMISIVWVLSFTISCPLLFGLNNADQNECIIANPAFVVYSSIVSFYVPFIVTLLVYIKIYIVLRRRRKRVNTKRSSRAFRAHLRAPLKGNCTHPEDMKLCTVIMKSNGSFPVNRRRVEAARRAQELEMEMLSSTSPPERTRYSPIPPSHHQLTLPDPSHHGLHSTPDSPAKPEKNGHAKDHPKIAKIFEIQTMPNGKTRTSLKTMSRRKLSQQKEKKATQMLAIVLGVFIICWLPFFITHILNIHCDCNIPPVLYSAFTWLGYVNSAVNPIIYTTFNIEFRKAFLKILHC
T1 sequence (P21728 whole entry): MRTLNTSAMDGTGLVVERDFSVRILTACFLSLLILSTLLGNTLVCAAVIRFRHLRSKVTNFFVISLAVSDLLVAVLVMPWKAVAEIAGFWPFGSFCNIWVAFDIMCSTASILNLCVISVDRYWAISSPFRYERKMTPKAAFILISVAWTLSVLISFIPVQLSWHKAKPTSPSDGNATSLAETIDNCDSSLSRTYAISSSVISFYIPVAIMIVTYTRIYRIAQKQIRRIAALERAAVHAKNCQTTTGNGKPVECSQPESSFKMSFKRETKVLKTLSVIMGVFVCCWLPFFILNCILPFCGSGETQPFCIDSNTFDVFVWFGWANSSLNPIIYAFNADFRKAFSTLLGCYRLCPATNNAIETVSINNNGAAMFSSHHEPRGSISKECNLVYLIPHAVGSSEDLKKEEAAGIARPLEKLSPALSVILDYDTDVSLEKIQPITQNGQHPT
T5 sequence (P35462 whole entry): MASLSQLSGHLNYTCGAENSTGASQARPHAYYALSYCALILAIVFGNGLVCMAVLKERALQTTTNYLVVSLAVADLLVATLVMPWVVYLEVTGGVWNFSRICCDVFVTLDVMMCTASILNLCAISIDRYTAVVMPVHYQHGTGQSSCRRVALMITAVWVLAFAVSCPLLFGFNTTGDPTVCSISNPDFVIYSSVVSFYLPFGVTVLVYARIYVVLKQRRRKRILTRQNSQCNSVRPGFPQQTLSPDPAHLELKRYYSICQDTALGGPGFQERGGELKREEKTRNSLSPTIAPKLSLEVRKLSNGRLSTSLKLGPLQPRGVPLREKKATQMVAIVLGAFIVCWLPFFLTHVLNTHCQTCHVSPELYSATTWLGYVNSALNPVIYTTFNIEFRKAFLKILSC
T3 sequence (P21918 whole entry): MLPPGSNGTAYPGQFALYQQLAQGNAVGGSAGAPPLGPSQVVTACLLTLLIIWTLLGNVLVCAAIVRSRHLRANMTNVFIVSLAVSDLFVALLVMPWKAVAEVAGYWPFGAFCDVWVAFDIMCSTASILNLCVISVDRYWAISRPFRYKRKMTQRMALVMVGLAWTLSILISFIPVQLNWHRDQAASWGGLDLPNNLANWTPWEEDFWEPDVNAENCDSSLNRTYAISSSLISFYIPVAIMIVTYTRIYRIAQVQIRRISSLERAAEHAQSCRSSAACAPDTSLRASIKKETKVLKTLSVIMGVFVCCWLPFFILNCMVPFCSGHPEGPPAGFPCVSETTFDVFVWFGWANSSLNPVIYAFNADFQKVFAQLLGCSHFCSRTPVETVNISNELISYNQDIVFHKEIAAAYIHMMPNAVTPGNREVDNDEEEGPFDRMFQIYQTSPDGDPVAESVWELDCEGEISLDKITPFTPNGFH

Oc1cc2c(cc1O)[C@H]1c3ccccc3CN[C@@H]1CC2 (racemic) [Dihydrexidine, reference compound]
increase in [35S]-GTPγS binding compared with SKF38393 ([1]; membrane preparations from HEK293-hD1 cells, 1 μM GDP): significantly higher increase

BrCCN1CCc2ccccc2Cc2[nH]c3ccccc3c2CC1 [AHAD11]
Ki ([2]; read-out: pKi hD1 (converted)): 1510 nM

CN1CCc2ccccc2Cc2[nH]c3ccccc3c2CC1 [LE300]
Ki [3]: 1.86 nM
Ki-D1/Ki-D2 [2]: 0.16
fold higher Ki using Krebs-HEPES instead of TRIS-HCl buffer, hD1 [2]: ~ 4 fold
Ki ([2]; 0.2 nM [3H]SCH23390, Krebs-HEPES buffer pH 7.4, n = 3, read-out: Ki (Krebs-HEPES) hD1): 10 ± 1.15 nM
Ki ([2]; 0.2 nM [3H]SCH23390, TRIS-HCl pH 7.4, n = 3, read-out: Ki (TRIS-HCl) hD1): 2.36 ± 0.13 nM
Ki ([2]; heterologous competition, 0.2 nM [3H]SCH23390, Krebs-HEPES buffer pH 7.4, mean ± SEM, n ≥ 3, read-out: pKi hD1 (converted)): 10.5 nM
Ki [4]: 7.24 nM
Ki [5]: 0.224 nM
Ki [6]: 10.2 nM
Ki [7]: 64.6 nM
Ki ([8]; read-out: pKi app [Ca2+]i hD2L (converted)): 11.7 nM
Ki ([1]; read-out: pKi app [35S]-GTPγS binding hD1 (converted)): 17.8 nM
pKi app [Ca2+]i hD1 [9]: 7.22 ± 0.15
IC50 ([9]; read-out: IC50 [Ca2+] hD1 (antagonist)): 718 ± 168 nM
IC50 ([10]; read-out: IC50 [cAMP] hD1 (antagonist)): 123 ± 31.1 nM
Ki ([10]; read-out: pKi app [cAMP]i hD1 (converted)): 28.2 nM
Ki [11]: 347 nM
Ki [12]: 331 nM

CN1CCc2ccccc2Cc2cc(O)c(O)cc2CC1 [LE403]
higher affinities for D1-like than for D2-like receptors [2]: up to 33 fold
Ki [5]: 3.98 nM
Ki [12]: 724 nM

CN1CCc2ccccc2Cc2ccc(O)cc2CC1 [LE404]
higher affinities for D1-like than for D2-like receptors [2]: up to 33 fold
Ki [5]: 1.62 nM
nature of antagonism at D2L receptors [8, 15]: competitive antagonistic behaviour
nature of antagonism at D1 receptors [9, 15]: competitive antagonistic behaviour
D1 preference over D2L in Ca2+ studies ([9]; apparent functional Ki, Ca2+ (table 5)): 3 fold

CN(C)CCC=C1c2ccccc2C=Nc2ccc(Cl)cc21 [RMI-81582, 2-chloro-11-(3-dimethylaminopropylidene)morphanthridine]
Ki-D2/Ki-5HT2A (calculated from literature) [13]: 31.6^a)
Ki-D1/Ki-D2 (calculated from literature) [14]: 0.05^a)

— publication PMC1586004, “Dibenzazecine compounds with a novel dopamine/5HT2A receptor profile and 3D-QSAR analysis” (BMC Pharmacology, 2006)
